{"source": "patent US20150140015A1", "about": "“METHODS AND PHARMACEUTICAL COMPOSITIONS FOR THE TREATMENT OF PANCREATIC CANCER” (INSERM (Institut National de la Sante et de la Recherche …, priority 2013, published 2015)", "key": {"[1]": {"tested_on": "AsPC-1 cells xenografted in nude mice", "experiment": "Tumorigenicity assay: AsPC-1 cells xenografted in nude mice", "format": "in vivo"}, "[2]": {"tested_on": "AsPC-1 cells", "experiment": "Activated caspase-3 immunostaining in AsPC-1 cells", "format": "cell-based, human", "conditions": "1 μM orexin-A, 48 hr", "method": "FIG. 4A-C. Effect of orexin-A on apoptosis in AsPC-1 cells. A, SHP-2 protein tyrosine phosphatase inhibitor, NSC-87877, blocks orexin-induced apoptosis. AsPC-1 cells were challenged with (black bars) or without (white bars) 1 μM orexin-A for 48 hr in the absence or presence of NSC-87877 (50 μM). Apoptosis was measured by determination of annexin V-PE binding, and results are expressed as the percentage of apoptotic cells; B and C: Indirect immunostaining of activated caspase-3 in AsPC-1 cells in the presence or absence of orexin-A. Paraformaldehyde-fixed AsPC-1 cells were challenged with (orexin-A) or without (basal) 1 μM orexin-A for 48 hr. Activated caspase-3 immunostaining is shown in B and scored in C. […]\nAfter dewaxing, rehydrating tumor paraffin sections, and antigen retrieval by pretreatment with high temperature at pH 9, immunohistochemical procedures were carried out using an automated immunohistochemical stainer according to the manufacturer's guidelines (Bond-Max slide stainer, Menarini, Leica Microsystems). […] OX1R immunostaining was evaluated by two investigators (TV and AC) by calculating a score (0-300) obtained by multiplying the intensity (negative, 0; weak, 1; moderate, 2; and strong, 3) by the percentage of stained cells. The pattern of expression (cytoplasmic, membranous, and nuclear) was also recorded, and a mean score was calculated for each tumor. […]"}, "[3]": {"tested_on": "parental HPAF-II cells", "experiment": "Quantification of apoptotic cells by annexin V-PE labeling in parental HPAF-II cells", "format": "cell-based, human", "conditions": "1 μM orexin-A", "method": "(§1) FIGS. 5A and B. Effect of orexin-A on apoptosis in OX1R expressing recombinant OX1R/HPAF-II cells. A, Parental HPAF-II and recombinant OX1R/HPAF-II cells were challenged with (black bars) or without (white bars) 1 μM orexin-A for 48 hr in the absence or presence of the SHP-2 protein tyrosine phosphatase inhibitor, NSC-87877 (50 μM). Apoptosis was measured by determination of annexin V-PE binding. Results are expressed as the percentage of apoptotic cells, and are the means±SE of three separate experiments. ***p<0.001; ns, non-significant; B, paraformaldehyde-fixed HPAF-II cells and recombinant OX1R/HPAF-II cells were challenged with or without (Basal) 1 μM orexin-A for 48 hr. Indirect immunostaining of activated caspase-3 in parental HPAF-II cells (left panels) and recombinant OX1R/HPAF-II cells (right panels) in the presence (bottom panels) or tabsence (top panels) of orexin-A is illustrated in B.\n(§2) AsPC-1, SW 1990, HPAF-II and HPAF-II/hOX1R cells (seeded at 5×10^4 cells/well) were grown in 24-well plates for 24 hr under the culture conditions described above. The culture medium was then replaced every 24 hr with fresh medium with or without orexin-A (GL Biochemicals) at a concentration of 1 μM in the presence or absence of the SHP-2 inhibitor, NSC-87877 (50 μM) (Calbiochem, VWR International SAS, France). At the end of the treatment (48 hr), apoptotic cells were determined using the Guava Nexin™ kit (Guava Technologies, Hayward, Calif., USA), which discriminates between apoptotic and non-apoptotic cells (Rouet-Benzineb P, Rouyer-Fessard C, Jarry A, et al. Orexins Acting at Native OX1 Receptor in Colon Cancer and Neuroblastoma Cells or at Recombinant OX1 Receptor Suppress Cell Growth by Inducing Apoptosis. J Biol Chem 2004; 279:45875-86), analyzed with the Guava Personal Cell Analysis (PCA) system (Merck-Millipore, Guyancourt, France), and counted (2,000 events) (Voisin et al, 2008, as above). Results are expressed as the percentage of apoptotic phycoerythrin-labelled Annexin V (Annexin V-PE) positive cells and are the means of 3 independent analyses."}, "[4]": {"tested_on": "HPAF-II cells expressing recombinant OX1R", "experiment": "Quantification of apoptotic cells by annexin V-PE labeling in recombinant OX1R/HPAF-II cells", "format": "cell-based, human", "conditions": "1 μM orexin-A, 48 hr; recombinant HPAF-II expressing OX1R", "method": "as §1, with “in B. […]” for “in B.”\nAsPC-1, SW 1990, HPAF-II and HPAF-II/hOX1R cells (seeded at 5×10^4 cells/well) were grown in 24-well plates for 24 hr under the culture conditions described above. […] Results are expressed as the percentage of apoptotic phycoerythrin-labelled Annexin V (Annexin V-PE) positive cells and are the means of 3 independent analyses."}, "[5]": {"tested_on": "AsPC-1 cells", "experiment": "Quantification of apoptotic cells by annexin V-PE labeling in AsPC-1 cells", "format": "cell-based, human", "conditions": "1 μM orexin-A, 48 hr", "method": "FIG. 4A-C. Effect of orexin-A on apoptosis in AsPC-1 cells. A, SHP-2 protein tyrosine phosphatase inhibitor, NSC-87877, blocks orexin-induced apoptosis. AsPC-1 cells were challenged with (black bars) or without (white bars) 1 μM orexin-A for 48 hr in the absence or presence of NSC-87877 (50 μM). Apoptosis was measured by determination of annexin V-PE binding, and results are expressed as the percentage of apoptotic cells; B and C: Indirect immunostaining of activated caspase-3 in AsPC-1 cells in the presence or absence of orexin-A. Paraformaldehyde-fixed AsPC-1 cells were challenged with (orexin-A) or without (basal) 1 μM orexin-A for 48 hr. Activated caspase-3 immunostaining is shown in B and scored in C. Results are means±SE of three separate experiments. ***p<0.001; ns, non-significant.\nas §2"}}}
{"substance": "orexin-A: 33 amino acid hypothalamic neuropeptide, OX1R agonist, SEQ ID NO:2; peptide from GL Biochemicals", "values": [{"measurement": "tumor volume decrease under other injection frequencies", "setting": "[1]; 2 or 3 injections/week (data not shown)", "result": "same results"}, {"measurement": "reduction of tumor volume versus daily injections", "setting": "[1]; once or twice weekly therapy (data not shown)", "result": "equivalent or even more effective"}, {"measurement": "cleavage and activation of caspase 3", "setting": "[2]", "result": "induced the cleavage and activation of caspase 3"}, {"measurement": "induction of apoptosis", "setting": "[3]; 48 hr, untransfected parental HPAF-II cells", "result": "did not induce apoptosis"}, {"measurement": "annexin-V positive apoptotic cells", "setting": "[3]; untransfected cells", "result": "2.1%±0.4"}, {"measurement": "annexin-V positive apoptotic cells", "setting": "[4]", "result": 17.8, "unit": "%"}, {"measurement": "percentage of apoptotic cells (annexin V-PE)", "setting": "[5]", "result": "24.3%±1.4"}]}
